“And” between values parts separate entries of the source, which are not always exact repeats. Equal values may be shown once.
Key:
HCT-116 cell [1] = experiment: Co-treatment with chemical anticancer drug, growth inhibition and combinational index; settings: 48 h, co-treated with Paclitaxel, PTX (μM) in c0 and Example 1 (μM) in c1 of the row
From the text: As the co-delivery effect, the synergistic effect was CI≤0.85, the additive effect was 0.85<CI≤1.15, and the antagonistic effect was CI>1.15.

[2] = tested on: human colorectal cancer cell lines (HCT-116 and HT-29); experiment: Change in ascorbic acid level in cancer cells; format: cell-based; settings: 1 mM; 24 h; lysate; vs untreated control
Method: After culture, the cultured cancer cells were pulverized with a homogenizer and centrifuged, and the concentration of ascorbic acid contained in the lysate was measured using an ascorbic acid assay kit (Biovision, San Francisco, CA).

SW480 = experiment: Hetero salts vs homo salts, cell viability and cytotoxicity, SW480; format: cell-based; settings: SW480; 5 mM
Method: (§1) Hetero salts prepared according to the examples (ASCA101, ASCA201) and homo salts were applied to colorectal cancer cell lines, and their effects on cell viability and cytotoxicity were evaluated.
(§2) Herein, “Na-ASC” refers to sodium ascorbate, “Na-DCA” refers to sodium dichloroacetate, “Ca (ASC) 2” refers to calcium ascorbate, “Ca (DCA) 2” refers to calcium dichloroacetate, and “Ca (LA) 2” refers to calcium lactate.

PDH enzyme = experiment: Time-dependent PDH enzyme activity in cancer cells; format: cell-based; settings: DLD-1 and HT-29 cancer cells; FIG. 29
[3] = tested on: brain cancer cell line (U87MG); experiment: MTT assay, 72 h, brain cancer cell line; format: cell-based; settings: U87MG, MTT
Method: (§3) The calcium salts of Examples 1 to 3 were added to each well by concentration (20 mg/ ? , mg/ ? , 0.8 mg/ ? , 0.16 mg/ ? , 0.032 mg/ ? , 0.0064 mg/ ? , 0.00128 mg/ ? , 0.000256 mg/ ? ). […] The supernatant was removed using a centrifuge, DMSO 200 ? was added to each well to dissolve the MTT stained precipitate, and OD540 value was measured at 540 nm with an ELISA reader.

[4] = tested on: breast cancer cell line (MDA-MB-231); experiment: MTT assay, 72 h, breast cancer cell line; format: cell-based; settings: MDA-MB-231; 72 h; MTT
Method: as §3

[5] = tested on: stomach cancer cell line (SNU-638); experiment: MTT assay, 48 h, SNU-638; settings: 48 h, MTT
Method: (§7) 7 cell lines were aliquoted to each well of a 96-well plate at 5×10^3 cells, and cultured for 24 hours. […] The drug-treated cells were cultured in an incubator (37° C., 5% CO2) for 48 hours, and 5 mg/ ? MTT reagent 10 ? was added to each well and cultured for additional 4 hours. Then, culture medium was removed and DMSO 100 ? was treated to dissolve the MTT stained precipitate, and absorbance was measured at 540 nm with a microplate reader.

[6] = tested on: pancreatic cancer cell line (PANC-1); experiment: MTT assay, 48 h, PANC-1; settings: 48 h, MTT
Method: as §7

[7] = tested on: colorectal cancer cell line (HT-29); experiment: MTT assay, 48 h, HT-29; settings: 48 h, MTT
Method: as §7

DLD-1 = experiment: Hetero salts vs homo salts, cell viability and cytotoxicity, DLD-1; format: cell-based; settings: DLD-1; 10 mM
Method: as §1, §2

[8] = tested on: poly (ADP-ribose) polymerase 1 (PARP-1); experiment: Western blot, PARP-1 expression in HCT-116; format: cell-based, human; settings: 24 h
Method: The cultured cancer cells were pulverized with a homogenizer and centrifuged, and the expression levels of poly (ADP-ribose) polymerase 1 (PARP-1), β-catenin, VEGF and β-actin proteins contained in the lysate were measured using Western blot.

[9] = ASCA101 in rat plasma after intravenous administration (LC-MS/MS); format: in vivo; settings: 0.083 hours after intravenous administration
[10] = tested on: ovarian cancer cell line (A2780); experiment: MTT assay, 48 h, A2780; settings: 48 h, MTT
Method: as §7

[11] = tested on: lung cancer cell line (A-549); experiment: MTT assay, 48 h, A549; settings: 48 h, MTT
Method: as §7

[12] = tested on: DLD-1 cells transplanted into the colon; experiment: Colorectal cancer mouse model (DLD-1 orthotopic model); format: in vivo; settings: 100 mg/kg IV once a day (Qdx4) for 1 week; dissected after 1 week; vs control
Method: (§4) In order to construct an animal model with orthotopic xenotransplantation (orthotopic xenograft) and general animal model (orthotopic xenograft), A549/LUC cells and DLD-1 cells were subcultured, and then the cancer cells were injected into the lung and colon of the mice, respectively.
(§5) Since the model was directly injected with cancer cells into the mouse organ, the growth of cancer was not confirmed by observation of the mouse appearance. Therefore, in the animal model to which A549/LUC cells were injected, D-Luciferin was injected intraperitoneally every 7 days to determine the growth saturation of cancer by luminescence imaging measurement using IVIS spectrum imaging system (Xenogen) device. On the other hand, in the animal model to which DLD-1 cells were injected, after 7 days, the experimental subjects were sacrificed to determine the growth saturation of cancer.
In other words, general DLD-1 cells were transplanted into the colon to construct a colorectal cancer mouse model (DLD-1 orthotopic model), and orthotopic xenotransplantation was conducted to the lung to construct a lung cancer mouse model (A549/LUC orthotopic model).
Further, weight of cancer tissue was measured to confirm the anticancer efficacy of the inventive substance in vivo and the results are shown in FIG. 19B.

[13] = GLP toxicity studies (NOAEL), intravenous and oral; format: in vivo
Method: In detail, the ionic compound is administered in a dose ranging from 1.61 mg/kg to 64.86 mg/kg based on body weight of the subject. Reflecting the results of actual nonclinical efficacy, toxicity and clinical phase 1 PK/PD (pharmacokinetics/pharmacodynamics) studies, the clinically effective doses are expected to be in the HED (Human Equivalent Dose) ranges 1.61 mg/kg for intravenous administration and 7.22 mg/kg for oral administration-up to a maximum of 32.43 mg/kg for intravenous administration and 64.86 mg/kg for oral administration.

[14] = ASCA101 in beagle dog plasma after intravenous administration (LC-MS/MS); format: in vivo
[15] = tested on: colorectal cancer cell line (DLD-1); experiment: MTT assay, 72 h, colorectal cancer cell line; format: cell-based; settings: DLD-1; 72 h; MTT
Method: as §3

[16] = Maintenance of hetero salt form in aqueous solution (MS); format: physicochemical; settings: added to water
[17] = tested on: liver cancer cell line (HepG2); experiment: MTT assay, 48 h, HepG2; settings: 48 h, MTT
Method: as §7

DLD-1 cell = experiment: IC50 of each drug alone, 48 h, DLD-1; format: cell-based
Method: (§6) Then, various concentration of Example or chemical anticancer drugs (Fluorouracil (5-FU), SN-38, Paclitaxel (PTX)) were treated thereto alone.

[18] = tested on: colorectal cancer cell line (HCT-116); experiment: MTT assay, 48 h, HCT-116; settings: 48 h; MTT; value in brackets
Method: as §7

[19] = tested on: A549/LUC cells implanted into the lung; experiment: Lung cancer mouse model (A549/LUC orthotopic model); format: in vivo; settings: 100 mg/kg IV once a day (Qdx4) for 5 weeks; vs control
Method: as §4
as §5, with “cancer. […]” for “cancer.”
The calcium salts of Examples 1 to 3 were administered to the same mouse model constructed in Test Example 5-1 (A549/LUC orthotopic model), respectively. […] Further, in order to quantify each imaging result more accurately, in vivo images were obtained by measuring ROI (Region of Interest), which is a program of IVIS spectrum (Xenogen), and the results are shown in FIG. 21.

HCT-116 cell [20] = experiment: IC50 of each drug alone, 48 h, HCT-116; format: cell-based, human; settings: read-out: IC50 value, HCT-116 cell
Method: as §6

HT-29 cell = experiment: IC50 of each drug alone, 48 h, HT-29; format: cell-based, human
Method: as §6

What does the source list for `O=C([O-])C(Cl)Cl.O=C1O[C@H]([C@@H](O)CO)C([O-])=C1O.[Ca+2]` [Example 1, calcium salts of dichloroacetic acid and ascorbic acid]?
Inhibition effect (%) (HCT-116 cell [1]): 73.298% and 63.569%; ascorbic acid concentration in cancer cells [2]: increased; cell viability, SW480 (5 mM) (SW480): 20.72; time-dependent PDH activity (PDH enzyme): greater increase in PDH activity during the first 6 hours, with the activity remaining relatively stable beyond 6 hours; IC50 of Brain cancer cell line [3]: 500 µg/mL; IC50 of Breast cancer cell line [4]: 40 µg/mL; IC50 of SNU-638 Stomach cancer (mg/ml) ([5]; value in brackets): (0.48) mg/ml; IC50 ([5]; read-out: IC50 mM of SNU-638 Stomach cancer): 1.4 mM; IC50 of PANC-1 Pancreatic cancer (mg/ml) ([6]; value in brackets): (0.14) mg/ml; IC50 ([6]; read-out: IC50 mM of PANC-1 Pancreatic cancer): 0.42 mM; IC50 of HT-29 Colorectal cancer cell line (mg/ml) ([7]; value in brackets): (0.29) mg/ml; IC50 ([7]; read-out: IC50 mM of HT-29 Colorectal cancer cell line): 0.83 mM; cell viability, DLD-1 (10 mM) (DLD-1): 11.43; concentration at which expression level of full length PARP-1 was decreased the most [8]: 0.18 mg/mL; ASCA101 concentration in rat plasma [9]: 26.835 µg/mL; IC50 of A2780 Ovarian cancer (mg/ml) ([10]; value in brackets): (0.06) mg/ml; IC50 ([10]; read-out: IC50 mM of A2780 Ovarian cancer): 0.17 mM; IC50 of A549 Lung cancer (mg/ml) ([11]; value in brackets): (0.79) mg/ml; IC50 ([11]; read-out: IC50 mM of A549 Lung cancer): 2.3 mM; growth of cancer cells / weight of cancer tissue [12]: significantly suppressed growth of cancer cells; human equivalent dose (HED) from NOAEL with safety factor of 10, intravenous ([13]; intravenous route): 1.61 mg/kg; human equivalent dose (HED) from NOAEL with safety factor of 10, oral ([13]; oral route): 7.22 mg/kg; ASCA101 concentration in beagle dog plasma ([14]; 0.083 hours after intravenous administration): 26.835 µg/mL; maintenance of hetero salt form in plasma / liquid medium ([14]; plasma of rats and beagles after intravenous administration): the hetero salt form was maintained in the bloodstream; IC50 of Colorectal cancer cell line [15]: 70 µg/mL; retention of hetero salt structure in aqueous solution (MS peaks) [16]: can retain its hetero salt structure in aqueous solution; IC50 of HepG2 Liver cancer (mg/ml) ([17]; value in brackets): (0.72) mg/ml; IC50 ([17]; read-out: IC50 mM of HepG2 Liver cancer): 2.1 mM; IC50 (DLD-1 cell): 360 µM; IC50 of HCT-116 Colorectal cancer cell line (mg/ml) [18]: (0.12) mg/ml; anticancer efficacy and metastasis (luminescence imaging, ROI) [19]: the growth and metastasis of cancer tissues was not shown at all; IC50 (HCT-116 cell [20]): 311 µM; IC50 (HT-29 cell): 1330 µM
